Test results published in patent publication US20210198269A1, “INHIBITORS OF GLUCOSE TRANSPORTERS (GLUTs)” (LEAD DISCOVERY CENTER GMBH, priority 2018, published 2021).
pIC50: −log10 of the molar value.

Key:
Assay type in all cases: cell-based
GLUT3 = target: T1, GLUT3 (Homo sapiens, UniProt P11169); assay: GLUT3 transporter activity assay (2-DG uptake) in DLD-1-GLUT1-/- cells; conditions: DLD-1-GLUT1-/- cell line; read-out: GLUT3 inhibitory activity (IC50)
T1 construct: host or cells: DLD-1-GLUT1(-/-) cells
T1 sequence (P11169 1-496): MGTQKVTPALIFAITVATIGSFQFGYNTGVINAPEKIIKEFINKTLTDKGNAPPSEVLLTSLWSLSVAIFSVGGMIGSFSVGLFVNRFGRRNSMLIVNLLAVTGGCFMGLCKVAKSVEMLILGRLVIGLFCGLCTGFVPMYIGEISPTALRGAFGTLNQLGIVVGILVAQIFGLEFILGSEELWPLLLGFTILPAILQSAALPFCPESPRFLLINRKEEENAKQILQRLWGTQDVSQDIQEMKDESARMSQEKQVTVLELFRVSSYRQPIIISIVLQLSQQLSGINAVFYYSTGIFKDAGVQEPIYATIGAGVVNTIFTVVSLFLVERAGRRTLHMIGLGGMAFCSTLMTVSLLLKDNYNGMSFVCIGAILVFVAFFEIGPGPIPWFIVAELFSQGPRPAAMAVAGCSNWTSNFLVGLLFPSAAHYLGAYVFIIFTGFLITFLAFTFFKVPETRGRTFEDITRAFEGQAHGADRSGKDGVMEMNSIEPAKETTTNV
Excerpt: (§1) GLUT 1, 2, 3 and 4 Transporter Activity Assays
(§2) Assays were based on the specificity assays reported by Kapoor et al., Proceedings of the National Academy of Sciences 2016, 113 (17) 4711-4716. For GLUT1, GLUT2, GLUT3 and GLUT4 specificity testing DLD1, CHO-hGLUT2, DLD-1-GLUT1−/− and CHO-hGLUT4 cell lines were used.
(§3) Assay protocols for 2-deoxy-Glucose (2-DG) Uptake Assay with DLD1 or DLD1-Glut1(−/−) cells or 7,000 CHOK1-SLC2A4 cells lines:
(§4) 14,000 DLD1 or DLD1-Glut1(−/−) cells or 7,000 CHOK1-SLC2A4 cells were seeded in black, clear bottom 384-well plates in glucose- and phenolred-free RPMI1640 medium supplemented with 1% FCS and 2 mM L-glutamine and allowed to attach overnight. Next day, cells were washed and incubated with compounds or DMSO and 1 mM 2-DG in glucose- and phenolred-free RPMI1640 medium for 30 min. Cells were then washed and lysed in 0.06 M HCl and 1% CHAPS for 15 min at 65° C. The amount of 2-DG in the lysate was determined by means of enzyme-coupled assay. For this 16 U/mL glucose-6-phosphate dehydrogenase, 0.2 U/mL diaphorase, 0.1 mM NADP^+ and 10 μM resazurin were added to the lysates. Resorufin fluorescence was determined as a measure of 2-DG uptake at ex/em 535/590 nm with a Victor Multilabel plate reader (Perkin Elmer). Blank values were subtracted from all readings and values were normalized to the DMSO control.

GLUT4 = target: T2, GLUT4 (Homo sapiens, UniProt P14672); assay: GLUT4 transporter activity assay (2-DG uptake) in CHO-hGLUT4 cells; conditions: CHO-hGLUT4 cell line; read-out: GLUT4 inhibitory activity (IC50)
T2 sequence (P14672 1-509): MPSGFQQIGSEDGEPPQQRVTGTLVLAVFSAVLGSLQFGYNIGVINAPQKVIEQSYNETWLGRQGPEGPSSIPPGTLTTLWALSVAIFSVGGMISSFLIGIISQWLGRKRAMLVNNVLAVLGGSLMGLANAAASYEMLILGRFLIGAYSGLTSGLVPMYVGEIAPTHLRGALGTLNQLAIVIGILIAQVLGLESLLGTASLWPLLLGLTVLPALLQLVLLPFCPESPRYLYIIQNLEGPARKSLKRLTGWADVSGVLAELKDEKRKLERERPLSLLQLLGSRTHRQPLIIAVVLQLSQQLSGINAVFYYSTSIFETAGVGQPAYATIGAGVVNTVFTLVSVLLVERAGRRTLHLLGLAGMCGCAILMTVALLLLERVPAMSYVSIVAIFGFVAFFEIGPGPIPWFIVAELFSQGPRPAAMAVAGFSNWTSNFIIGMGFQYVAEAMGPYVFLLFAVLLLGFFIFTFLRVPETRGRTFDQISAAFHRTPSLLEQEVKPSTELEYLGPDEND
Method: CHOK1-SLC2A4 cells were generated by transfection of CHOK1 cells with pCMV6-Entry-GLUT4 (Origene #SC125240) using Lipofectamin2000 according to the supplier's instructions. Briefly, 1.5E5 cells/well CHOK1 cells were seeded in 6-well cell culture plates. After overnight incubation, DNA-lipid complexes (2 μg plasmid DNA, DNA:lipid ratio 1:10) were prepared in OptiMEM and then added to the cells. After 5 days incubation, 800 μg G418 was added to the culture medium to generate a stable polyclone. For monoclone selection, single cells were re-plated in 96-well plates, expanded and selected by transgene overexpression and functional performance.
as §1, §2, §3, §4

GLUT1 = target: T3, GLUT1 (Homo sapiens, UniProt P11166); assay: GLUT1 transporter activity assay (2-DG uptake) in DLD1 cells; conditions: DLD1 cell line; read-out: GLUT1 inhibitory activity (IC50)
T3 construct: host or cells: DLD-1 (DLD1) cells
T3 sequence (P11166 1-492): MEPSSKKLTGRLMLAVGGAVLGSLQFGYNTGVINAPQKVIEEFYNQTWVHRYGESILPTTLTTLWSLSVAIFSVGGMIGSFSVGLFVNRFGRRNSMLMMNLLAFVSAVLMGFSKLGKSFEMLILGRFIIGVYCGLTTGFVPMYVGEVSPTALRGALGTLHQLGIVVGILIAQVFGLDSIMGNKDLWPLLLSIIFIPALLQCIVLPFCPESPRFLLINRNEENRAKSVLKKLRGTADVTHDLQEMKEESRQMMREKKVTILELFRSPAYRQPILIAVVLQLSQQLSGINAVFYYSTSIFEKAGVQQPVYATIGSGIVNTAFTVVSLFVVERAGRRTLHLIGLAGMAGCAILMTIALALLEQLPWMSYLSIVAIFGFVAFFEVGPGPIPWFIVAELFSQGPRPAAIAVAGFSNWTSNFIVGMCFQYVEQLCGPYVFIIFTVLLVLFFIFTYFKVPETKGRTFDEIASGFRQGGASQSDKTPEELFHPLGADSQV
Excerpt: as §1, §2, §3, §4

| SMILES | pIC50 (GLUT3) | pIC50 (GLUT4) | pIC50 (GLUT1) |
| --- | --- | --- | --- |
| Cc1ccc(CCNC(=O)c2cccc(N3C(=O)NC4CC3(C)Oc3c(OCc5ccncc5)cccc34)c2)cc1 (stereo not drawn) [Compound A09, 3-(2-Methyl-4-oxo-10-(pyridin-4-ylmethoxy)-5,6-dihydro-2H-2,6-methanobenzo[g][1,3,5]oxadiazocin-3(4H)-yl)-N-(4-methylphenethyl)benzamide] | 6.00 to 6.52 | 5.00 to 5.40 | ≥ 6.52 |
| Cc1ccc(CCNC(=O)c2cccc(N3C(=O)NC4CC3(C)Oc3c(OCc5cccnc5N)cccc34)c2)cc1 (stereo not drawn) [Compound A12, 3-(10-((2-Aminopyridin-3-yl)methoxy)-2-methyl-4-oxo-5,6-dihydro-2H-2,6-methanobenzo[g][1,3,5]oxadiazocin-3(4H)-yl)-N-(4-methylphenethyl)benzamide] | 5.40 to 6.00 | < 4.60 | 5.40 to 6.00 |
| Cc1ccc(CCNC(=O)c2cccc(N3C(=O)NC4CC3(C)Oc3c(OCc5cncc(C)c5)cccc34)c2)cc1 (stereo not drawn) [Compound A14, 3-(2-Methyl-10-((5-methylpyridin-3-yl)methoxy)-4-oxo-5,6-dihydro-2H-2,6-methanobenzo[g][1,3,5]oxadiazocin-3(4H)-yl)-N-(4-methylphenethyl)benzamide] | ≥ 6.52 | 5.40 to 6.00 | ≥ 6.52 |
| CC12CC(NC(=O)N1c1cccc(C(=O)NC3Cc4ccccc4C3)c1)c1cccc(OCc3ccccc3)c1O2 (stereo not drawn) [Compound A24, 3-(10-(benzyloxy)-2-methyl-4-oxo-5,6-dihydro-2H-2,6-methanobenzo[g][1,3,5]oxadiazocin-3(4H)-yl)-N-(2,3-dihydro-1H-inden-2-yl)benzamide] | 5.00 to 5.40 | 4.60 to 5.00 | 4.60 to 5.00 |
| CCNC(=O)c1cccc(N2C(=O)NC3CC2(C)Oc2c(OCc4ccccc4)cccc23)c1 (stereo not drawn) [Compound A38, 3-(10-(benzyloxy)-2-methyl-4-oxo-5,6-dihydro-2H-2,6-methanobenzo[g][1,3,5]oxadiazocin-3(4H)-yl)-N-(ethyl)benzamide] | 5.00 to 5.40 | 4.60 to 5.00 | 4.60 to 5.00 |

The next lines start with the values.

| pIC50 (GLUT3) | pIC50 (GLUT4) | pIC50 (GLUT1) | SMILES |
| --- | --- | --- | --- |
| 6.00 to 6.52 | 5.40 to 6.00 | ≥ 6.52 | Cc1ccc(CCNC(=O)c2cccc(N3C(=O)NC4CC3(C)Oc3c(OCC5CC5)cccc34)c2)cc1 (stereo not drawn) [Compound A08, 3-(10-(Cyclopropylmethoxy)-2-methyl-4-oxo-5,6-dihydro-2H-2,6-methanobenzo[g][1,3,5]oxadiazocin-3(4H)-yl)-N-(4-methylphenethyl)benzamide] |
| 6.00 to 6.52 | < 4.60 | 6.00 to 6.52 | Cc1ccc(CCNC(=O)c2cccc(N3C(=O)NC4CC3(C)Oc3c(OCc5cncnc5)cccc34)c2)cc1 (stereo not drawn) [Compound A13, 3-(2-Methyl-4-oxo-10-(pyrimidin-5-ylmethoxy)-5,6-dihydro-2H-2,6-methanobenzo[g][1,3,5]oxadiazocin-3(4H)-yl)-N-(4-methylphenethyl)benzamide] |
| 5.40 to 6.00 | < 4.60 | 4.60 to 5.00 | CC12CC(NC(=O)N1c1cccc(C(=O)N3CCc4ccccc43)c1)c1cccc(OCc3ccccc3)c1O2 (stereo not drawn) [Compound A19, 10-(benzyloxy)-3-(3-(indoline-1-carbonyl)phenyl)-2-methyl-5,6-dihydro-2H-2,6-methanobenzo[g][1,3,5]oxadiazocin-4(3H)-one] |
| 5.40 to 6.00 | < 4.60 | 5.00 to 5.40 | Cc1ccc(CCOC(=O)c2cccc(N3C(=O)NC4CC3(C)Oc3c(OCc5ccccc5)cccc34)c2)cc1 (stereo not drawn) [Compound A22, 4-methylphenethyl 3-(10-(benzyloxy)-2-methyl-4-oxo-5,6-dihydro-2H-2,6-methanobenzo[g][1,3,5]oxadiazocin-3(4H)-yl)benzoate] |
| 5.00 to 5.40 | 4.60 to 5.00 | < 4.60 | CC12CC(NC(=O)N1c1cccc(C(=O)NC3CCc4ccccc4C3)c1)c1cccc(OCc3ccccc3)c1O2 (stereo not drawn) [Compound A26, 3-(10-(benzyloxy)-2-methyl-4-oxo-5,6-dihydro-2H-2,6-methanobenzo[g][1,3,5]oxadiazocin-3(4H)-yl)-N-(1,2,3,4-tetrahydronaphthalen-2-yl)benzamide] |
